Experiment [1] relates to Zucker diabetic fatty rat (ZDF-DRT-fa). In words: Further study: plasma glucose in ZDF rats with dose reduction and withdrawal of treatment. The format is in vivo. As to the method:
(§1) To determine the impact of treatment with the substituted aminopyrimidines of Formula I on the progression of disease 6 week-old ZDF animals were grouped into the following categories, with 5 animals assigned to each group. Group 1 Control (5008 chow ad libitum) Group 2 Moxonidine (10 mg/kg/day) Group 3 Pair fed to correct for decrease in food consumption in 10 mg/kg/day group
(§2) Rats were housed one per plastic cage with bedding and had free access to water and Purina Formulalab 5008 Chow (except pair fed group). Because previous studies had indicated a reduction in food consumption with moxonidine treatment, body weight and food consumption were monitored daily, and a group of control animals was pair fed to moxonidine treated group. Blood samples were collected from the tail vein. Plasma glucose and insulin levels are monitored weekly.
(§3) Plasma glucose was measured by coupled hexokinase method on the IL Monarch System (Instrumentation Laboratory, Lexington, MA). Plasma insulin was determined with radioimmunoassay kit from Diagnostics Products Corporation (San Diego, CA) using rat insulin as a standard.
A further study was carried out as described above, except that moxonidine treatment was reduced to 6.4 mg/kg/day for two days, followed by resumption of moxonidine treatment at 10 mg/kg/day for 13 days, and then stopping moxonidine treatment.

The test system is the same in experiment [2]. In words: Plasma glucose in 6 week-old prediabetic Zucker diabetic fatty rats. The format is in vivo. The conditions noted are these: value (SEM). How it is done:
(§4) The activity of the compounds of the present invention was determined by testing the efficacy in vivo in Zucker diabetic rats.
(§5) The Zucker diabetic fatty rat (ZDF-DRT-fa) is a classic rodent model of diabetes associated with obesity and insulin resistance, with tissue specific defects in insulin sensitivity similar to human patients with type II diabetes mellitus. This animal model at six weeks of age is normoglycemic, but glucose intolerant (Clark JB, Palmer CJ, and Shaw WN: The diabetic Zucker fatty rat, Proceeding of the Society for Experimental Bioloqy and Medicine 173, 68-75, 1983; and Peterson RG, Shaw WN, Neel M, Little LA, Eichburg J: Zucker diabetic fatty rat as a model for non-insulin dependent diabetes mellitus. ILAR News 32:16-19, 1990.) Between seven and eight weeks of age, plasma glucose levels rise as the pancreatic beta cells lose their ability to secrete sufficient insulin to compensate for insulin resistance. In an attempt to maintain plasma glucose in normal range, the pancreas is forced to secrete increasing amount of insulin, resulting in hyperinsulinemia (Bue JM and Shaw WN: ZDF-Drt-fa rat: A new model with marked susceptibility to dietary manipulation. Diabetes 40:865A, 1991). The ZDF rat is usually studied between eight and nine weeks of age when it is hyperglycemic, hyperinsulinemic, and hyperlipemic, in an attempt to halt further decline of pancreatic function. The present study was carried out in six weeks old animals (prediabetic). The purpose of this study was to determine whether moxonidine treatment will prevent or delay onset of diabetes in the six weeks old prediabetic ZDF rat.
as §1, §2, §3
(§6) Plasma glucose and plasma insulin were monitored weekly. The results of these in vivo experiments are set forth below in Tables 1 and 2. The value in parenthesis following the plasma glucose value and plasma insulin value is the standard error of the mean.

Experiment [3] has the same test system. In words: Plasma insulin in 6 week-old prediabetic Zucker diabetic fatty rats. The format is in vivo. The note with it: value (SEM). How it is done:
as §4, §5, §1, §2, §3, §6

Experiment [4] relates to I1 receptors over α2 adrenergic receptors. The note with it: bovine RVLM; saturation binding; Ernsberger et al., J. Pharmacol. Exp. Ther., 264, 172-182 (1993); cited from earlier work.

Consider `COc1nc(C)nc(Cl)c1N=C1NCCN1` [Moxonidine, 4-chloro-N-(imidazoline-2-ylidene) -6-methoxy-2-methyl-5-pyrimidineamine], for which the “Plasma Glucose” value in experiment [1] (Treatment period day 0, mox @ 10 m/k/d) is 141.5333 mg/dL; in experiment [1] (Treatment period day 7, mox @ 10 m/k/d), 152.8917 mg/dL; in experiment [1] (Treatment period day 14, mox @ 10 m/k/d), 166.2528 mg/dL; in experiment [1] (Treatment period day 21, at this day reduced mox dose to 6.4 m/k/d) it was 172.1556 mg/dL; in experiment [1] (Treatment period day 23, after two days at 6.4 m/k/d, mox @ 10 m/k/d resumed), 254.0889 mg/dL; in experiment [1] (Treatment period day 28, mox @ 10 m/k/d) it was 251.4833 mg/dL. In addition, the “Plasma Glucose” value in experiment [1] (Treatment period day 36, stopped mox treatment) is 242.5944 mg/dL; in experiment [1] (Treatment period day 42, 1 wk after mox is removed) it was 265.9556 mg/dL; in experiment [1] (Treatment period day 49, 2 wks after mox is removed), 410.425 mg/dL; in experiment [2] (Day 0, 10 mg/kg/day) it was 145.6 (2.4) mg/dl; in experiment [2] (Day 7, 10 mg/kg/day) it was 148.1 (13.8) mg/dl; in experiment [2] (Day 14, 10 mg/kg/day), 166.1 (11.2) mg/dl. Further, the “Plasma Glucose” value is reported as 164.2 (8.0) mg/dl in experiment [2] (Day 21, 10 mg/kg/day); 168.0 (12.6) mg/dl in experiment [2] (Day 28, 10 mg/kg/day); 191.6 (8.2) mg/dl in experiment [2] (Day 35, 10 mg/kg/day); 179.8 (6.1) mg/dl in experiment [2] (Day 42, 10 mg/kg/day); 152.1 (8.7) mg/dl in experiment [2] (Day 49, 10 mg/kg/day); 168.4 (12.6) mg/dl in experiment [2] (Day 63, 10 mg/kg/day). Besides, the “Plasma Insulin” value in experiment [3] (Day 0, 10 mg/kg/day) is recorded as 10.9 (0.9) ng/ml; in experiment [3] (Day 7, 10 mg/kg/day) it was 9.3 (1.0) ng/ml; in experiment [3] (Day 14, 10 mg/kg/day) it was 12.7 (1.4) ng/ml; in experiment [3] (Day 21, 10 mg/kg/day) it was 17.8 (1.2) ng/ml; in experiment [3] (Day 28, 10 mg/kg/day), 23.4 (1.8) ng/ml; in experiment [3] (Day 35, 10 mg/kg/day) it was 24.8 (1.4) ng/ml. Besides, in experiment [3] (Day 42, 10 mg/kg/day), the “Plasma Insulin” value is reported as 20.6 (0.7) ng/ml.
On to `Clc1cccc(Cl)c1N=C1NCCN1` [clonidine], for which the “selectivity value (Ki at α2 sites in µM/Ki sites in µM)” value in experiment [4] is listed as “less than 4”.

(Values after EP0857483A1, “Substituted aminopyridines in the treatment of glucose metabolism disorders” (ELI LILLY AND COMPANY, priority 1997, dated 1998).)
